System: MV-4-11 cells
Assay: Gene expression microarray analysis (Affymetrix PrimeView) and GSEA
Assay type: cell-based, human
Design: RFU PODN (11730768_x_at) / Fold change /veh PODN (11730768_x_at) / RFU LINC00158 (11744669_a_at) / Fold change /veh LINC00158 (11744669_a_at) / RFU DUSP10 (11751237_a_at) / Fold change /veh DUSP10 (11751237_a_at) / RFU ID3 (11757404_x_at) / Fold change /veh ID3 (11757404_x_at) / RFU PLEKHG5 (11737974_s_at) / Fold change /veh PLEKHG5 (11737974_s_at) / RFU LRRC4B (11730491_at) / Fold change /veh LRRC4B (11730491_at) / RFU GIMAP4 (11747438_a_at) / Fold change /veh GIMAP4 (11747438_a_at) / RFU KRT8 (11758183_x_at) / Fold change /veh KRT8 (11758183_x_at) / RFU CNN1 (11734310_a_at) / Fold change /veh CNN1 (11734310_a_at) / RFU VPS37D (11726825_at) / Fold change /veh VPS37D (11726825_at) / RFU C10orf10 (11716522_x_at) / Fold change /veh C10orf10 (11716522_x_at) / RFU KIR2DL2 /// KIR2DL4 /// KIR2DL5A /// KIR2DL5B /// KIR2DS1 /// KIR2DS2 /// KIR2DS3 /// KIR2DS4 /// KIR3DL3 /// KIR3DL3 /// KIR3DS1 (11738374_at) / Fold change /veh KIR2DL2 /// KIR2DL4 /// KIR2DL5A /// KIR2DL5B /// KIR2DS1 /// KIR2DS2 /// KIR2DS3 /// KIR2DS4 /// KIR3DL3 /// KIR3DL3 /// KIR3DS1 (11738374_at) / RFU C1QL1 (11718748_at) / Fold change /veh C1QL1 (11718748_at) / RFU TMPRSS4 (11747572_a_at) / Fold change /veh TMPRSS4 (11747572_a_at) / RFU HAMP (11756126_x_at) / Fold change /veh HAMP (11756126_x_at) / RFU RNFT2 (11725882_a_at) / Fold change /veh RNFT2 (11725882_a_at) / RFU NR4A2 (11747474_a_at) / Fold change /veh NR4A2 (11747474_a_at) / RFU ABCC12 (11746883_a_at) / Fold change /veh ABCC12 (11746883_a_at) / RFU TMEM136 (11760407_x_at) / Fold change /veh TMEM136 (11760407_x_at) / RFU CLDN22 /// WWC2 (11732394_at) / Fold change /veh CLDN22 /// WWC2 (11732394_at) / RFU HLA-DPB1 (11760878_x_at) / Fold change /veh HLA-DPB1 (11760878_x_at) / RFU SPINT1 (11716480_a_at) / Fold change /veh SPINT1 (11716480_a_at) / RFU GAP43 (11754022_s_at) / Fold change /veh GAP43 (11754022_s_at) / RFU A4GNT (11735810_at) / Fold change /veh A4GNT (11735810_at) / RFU PRB3 (11715151_x_at) / Fold change /veh PRB3 (11715151_x_at) / RFU TUBB4B (11761932_at) / Fold change /veh TUBB4B (11761932_at) / RFU CAPN14 (11732068_a_at) / Fold change /veh CAPN14 (11732068_a_at) / RFU TMCC2 (11721928_a_at) / Fold change /veh TMCC2 (11721928_a_at) / RFU IRGQ (11745062_a_at) / Fold change /veh IRGQ (11745062_a_at) / RFU FAM174B (11720279_a_at) / Fold change /veh FAM174B (11720279_a_at) / RFU TMPRSS4 (11748680_a_at) / Fold change /veh TMPRSS4 (11748680_a_at) / RFU FAM212B (11763350_a_at) / Fold change /veh FAM212B (11763350_a_at) / RFU PLEKHG5 (11743358_a_at) / Fold change /veh PLEKHG5 (11743358_a_at) / RFU ZSCAN30 (11745921_a_at) / Fold change /veh ZSCAN30 (11745921_a_at) / RFU CMKLR1 (11741424_a_at) / Fold change /veh CMKLR1 (11741424_a_at) / RFU LOC101060620 /// MAPK8IP1 (11723275_at) / Fold change /veh LOC101060620 /// MAPK8IP1 (11723275_at) / RFU SPTSSB (11747773_x_at) / Fold change /veh SPTSSB (11747773_x_at) / RFU PRSS12 (11739890_at) / Fold change /veh PRSS12 (11739890_at) / RFU BIN1 (11741810_x_at) / Fold change /veh BIN1 (11741810_x_at) / RFU WNT11 (11732464_a_at) / Fold change /veh WNT11 (11732464_a_at) / RFU C10orf10 (11716521_a_at) / Fold change /veh C10orf10 (11716521_a_at) / RFU C5orf56 (11738089_at) / Fold change /veh C5orf56 (11738089_at) / RFU CYB561 (11721691_x_at) / Fold change /veh CYB561 (11721691_x_at) / RFU ANKRD19P (11752326_a_at) / Fold change /veh ANKRD19P (11752326_a_at) / RFU OR2T12 /// OR2T33 /// OR2T8 (11738714_s_at) / Fold change /veh OR2T12 /// OR2T33 /// OR2T8 (11738714_s_at) / RFU VCAN (11748164_a_at) / Fold change /veh VCAN (11748164_a_at) / RFU JSRP1 (11732532_at) / Fold change /veh JSRP1 (11732532_at) / RFU KRTAP10-11 (11738290_x_at) / Fold change /veh KRTAP10-11 (11738290_x_at) / RFU MYO3A (11730013_a_at) / Fold change /veh MYO3A (11730013_a_at) / RFU EBF3 (11725865_a_at) / Fold change /veh EBF3 (11725865_a_at) / RFU CAMK2N1 (11719241_x_at) / Fold change /veh CAMK2N1 (11719241_x_at) / RFU C5orf56 (11738088_a_at) / Fold change /veh C5orf56 (11738088_a_at) / RFU OLFML3 (11715873_a_at) / Fold change /veh OLFML3 (11715873_a_at) / RFU LOC100653217 /// NTM (11731650_a_at) / Fold change /veh LOC100653217 /// NTM (11731650_a_at) / RFU MAPK11 (11762145_a_at) / Fold change /veh MAPK11 (11762145_a_at) / RFU FIZ1 (11724087_x_at) / Fold change /veh FIZ1 (11724087_x_at) / RFU OASL (11726364_x_at) / Fold change /veh OASL (11726364_x_at) / RFU SOX15 (11748057_x_at) / Fold change /veh SOX15 (11748057_x_at) / RFU CD79A (11719716_a_at) / Fold change /veh CD79A (11719716_a_at) / RFU HIST1H1D (11736915_at) / Fold change /veh HIST1H1D (11736915_at) / RFU CASKIN2 (11723855_a_at) / Fold change /veh CASKIN2 (11723855_a_at) / RFU LOC730098 (11760151_x_at) / Fold change /veh LOC730098 (11760151_x_at) / RFU OR4N2 (11742367_at) / Fold change /veh OR4N2 (11742367_at) / RFU PRRT2 (11749266_a_at) / Fold change /veh PRRT2 (11749266_a_at) / RFU SNX32 (11753110_a_at) / Fold change /veh SNX32 (11753110_a_at) / RFU CDHR5 (11726645_a_at) / Fold change /veh CDHR5 (11726645_a_at) / RFU RCAN1 (11760418_a_at) / Fold change /veh RCAN1 (11760418_a_at) / RFU FAM167A (11723789_a_at) / Fold change /veh FAM167A (11723789_a_at) / RFU FAM26E (11764081_at) / Fold change /veh FAM26E (11764081_at) / RFU ISYNA1 (11749810_s_at) / Fold change /veh ISYNA1 (11749810_s_at) / RFU ACY1 (11761880_at) / Fold change /veh ACY1 (11761880_at) / RFU 11764098_at / Fold change /veh 11764098_at / RFU SAMD14 (11745864_x_at) / Fold change /veh SAMD14 (11745864_x_at) / RFU NPB (11741838_a_at) / Fold change /veh NPB (11741838_a_at) / RFU TMPRSS6 (11731388_a_at) / Fold change /veh TMPRSS6 (11731388_a_at) / RFU KRTAP10-2 (11738614_at) / Fold change /veh KRTAP10-2 (11738614_at) / RFU ARHGAP8 /// PRR5-ARHGAP8 (11727945_x_at) / Fold change /veh ARHGAP8 /// PRR5-ARHGAP8 (11727945_x_at) / RFU KRTAP5-7 /// NADSYN1 (11734609_at) / Fold change /veh KRTAP5-7 /// NADSYN1 (11734609_at) / RFU RASL12 (11751679_a_at) / Fold change /veh RASL12 (11751679_a_at) / RFU CDKN2B (11736163_a_at) / Fold change /veh CDKN2B (11736163_a_at) / RFU PRF1 (11729649_at) / Fold change /veh PRF1 (11729649_at) / RFU, ZNF638 /// ZNF638-IT1 / Fold change vs veh, ZNF638 /// ZNF638-IT1 / RFU, PANK3 / Fold change vs veh, PANK3 / RFU, SH3YL1 / Fold change vs veh, SH3YL1 / RFU, ZEB2 / Fold change vs veh, ZEB2 / RFU, NRIP1 / Fold change vs veh, NRIP1 / RFU, PTTG1IP / Fold change vs veh, PTTG1IP / RFU, CAPN2 / Fold change vs veh, CAPN2 / RFU, MED14 / Fold change vs veh, MED14 / RFU, SNORA58 / Fold change vs veh, SNORA58 / RFU, C1orf63 / Fold change vs veh, C1orf63 / RFU, LRRFIP1 / Fold change vs veh, LRRFIP1 / RFU, NDUFAF7 / Fold change vs veh, NDUFAF7 / RFU, SLC12A2 / Fold change vs veh, SLC12A2 / RFU, IBTK / Fold change vs veh, IBTK / RFU, ESF1 / Fold change vs veh, ESF1 / Fold change vs veh, TMEM50B / RFU, TAOK1 / Fold change vs veh, TAOK1 / RFU, ACBD3 / Fold change vs veh, ACBD3 / RFU, TMA16 / Fold change vs veh, TMA16 / RFU, RWDD3 / Fold change vs veh, RWDD3 / RFU, BCAT1 / Fold change vs veh, BCAT1 / RFU, EDEM3 / Fold change vs veh, EDEM3 / RFU, TMEM33 / Fold change vs veh, TMEM33 / RFU, WDR75 / Fold change vs veh, WDR75 / RFU, AHCTF1 / Fold change vs veh, AHCTF1 / RFU, TFRC / Fold change vs veh, TFRC / RFU, ZDHHC17 / Fold change vs veh, ZDHHC17 / RFU, NOM1 / Fold change vs veh, NOM1 / RFU, ARL8B / Fold change vs veh, ARL8B / RFU, ZBTB11 / Fold change vs veh, ZBTB11 / RFU, TAMM41 / Fold change vs veh, TAMM41 / RFU, KIAA1704 /// LOC100996395 / Fold change vs veh, KIAA1704 /// LOC100996395 / RFU, ING1 / Fold change vs veh, ING1 / RFU, TRMT61B / Fold change vs veh, TRMT61B / RFU, FUBP3 / Fold change vs veh, FUBP3 / RFU, TP53 / Fold change vs veh, TP53 / RFU, TNKS2 / Fold change vs veh, TNKS2 / RFU, ZFP14 / Fold change vs veh, ZFP14 / RFU, ACTR2 / Fold change vs veh, ACTR2 / RFU, PPP3R1 / Fold change vs veh, PPP3R1 / RFU, PIK3R1 / Fold change vs veh, PIK3R1 / RFU, HNRNPA1 / Fold change vs veh, HNRNPA1 / RFU, RNF170 / Fold change vs veh, RNF170 / RFU, ZNF28 / Fold change vs veh, ZNF28 / RFU, RNGTT / Fold change vs veh, RNGTT / RFU, OGT / Fold change vs veh, OGT / RFU, BRD1 / Fold change vs veh, BRD1 / RFU, MARS / Fold change vs veh, MARS / RFU, ZNF655 / Fold change vs veh, ZNF655 / RFU, FAHD1 / Fold change vs veh, FAHD1 / RFU, BDP1 / Fold change vs veh, BDP1 / RFU, LRRCC1 / Fold change vs veh, LRRCC1 / RFU, ARID1A / Fold change vs veh, ARID1A / RFU, ZNF146 / Fold change vs veh, ZNF146 / RFU, ZNF330 / Fold change vs veh, ZNF330 / RFU, GPN3 / Fold change vs veh, GPN3 / RFU, C9orf123 / Fold change vs veh, C9orf123 / RFU, N4BP2L2 / Fold change vs veh, N4BP2L2 / RFU, ARFIP1 / Fold change vs veh, ARFIP1 / RFU, FAM179B / Fold change vs veh, FAM179B / RFU, BCL10 / Fold change vs veh, BCL10 / RFU, UHRF1BP1L / Fold change vs veh, UHRF1BP1L / RFU, BET1 / Fold change vs veh, BET1 / RFU, CNOT2 / Fold change vs veh, CNOT2 / RFU, ZNF268 / Fold change vs veh, ZNF268 / Fold change vs veh, ZNF507 / RFU, DGCR2 / Fold change vs veh, DGCR2 / RFU, WDSUB1 / Fold change vs veh, WDSUB1 / Fold change vs veh, HSP90B1 /// MIR3652 / RFU, ADSS / Fold change vs veh, ADSS / RFU, GK / Fold change vs veh, GK / RFU, ZNF148 / Fold change vs veh, ZNF148 / RFU, TAF9 / Fold change vs veh, TAF9 / RFU, SLC1A5 / Fold change vs veh, SLC1A5 / RFU, SLMO2 / Fold change vs veh, SLMO2 / RFU, ABCC4 / Fold change vs veh, ABCC4 / RFU, LOC101060439 /// RAP1B / Fold change vs veh, LOC101060439 /// RAP1B / RFU, RFX7 / Fold change vs veh, RFX7 / RFU, GTPBP10 / Fold change vs veh, GTPBP10 / RFU, CNEP1R1 / Fold change vs veh, CNEP1R1 / RFU, BIVM-ERCC5 /// ERCC5 / Fold change vs veh, BIVM-ERCC5 /// ERCC5 / RFU, ILF3 / Fold change vs veh, ILF3 / RFU 11762660_at / Fold change /veh 11762660_at / RFU VCAN (11757783_s_at) / Fold change /veh VCAN (11757783_s_at) / RFU DDX43 (11728927_at) / Fold change /veh DDX43 (11728927_at) / RFU KRT8 (11758188_x_at) / Fold change /veh KRT8 (11758188_x_at) / RFU NKD1 (11759106_at) / Fold change /veh NKD1 (11759106_at) / RFU SRD5A1 (11742802_a_at) / Fold change /veh SRD5A1 (11742802_a_at) / RFU TPSAB1 /// TPSB2 (11721975_s_at) / Fold change /veh TPSAB1 /// TPSB2 (11721975_s_at) / RFU GSTM3 (11746129_a_at) / Fold change /veh GSTM3 (11746129_a_at) / RFU IL23R (11737362_x_at) / Fold change /veh IL23R (11737362_x_at) / RFU TMEM51 (11727254_a_at) / Fold change /veh TMEM51 (11727254_a_at) / RFU PIWIL2 (11732686_x_at) / Fold change /veh PIWIL2 (11732686_x_at) / RFU ORM1 (11744905_x_at) / Fold change /veh ORM1 (11744905_x_at) / RFU CCDC152 (11743942_at) / Fold change /veh CCDC152 (11743942_at) / RFU ECM1 (11717891_a_at) / Fold change /veh ECM1 (11717891_a_at) / RFU IL23R (11748794_a_at) / Fold change /veh IL23R (11748794_a_at) / RFU TNFAIP8L3 (11732012_x_at) / Fold change /veh TNFAIP8L3 (11732012_x_at) / RFU MBOAT4 (11741988_at) / Fold change /veh MBOAT4 (11741988_at) / RFU 11764193_at / Fold change /veh 11764193_at / RFU TMEM53 (11763286_at) / Fold change /veh TMEM53 (11763286_at) / RFU MAGEB2 (11727129_at) / Fold change /veh MAGEB2 (11727129_at) / RFU TMEM200A (11744735_a_at) / Fold change /veh TMEM200A (11744735_a_at) / RFU CCDC152 (11751479_a_at) / Fold change /veh CCDC152 (11751479_a_at) / RFU FAM211A (11726209_a_at) / Fold change /veh FAM211A (11726209_a_at) / RFU RGS16 (11746705_a_at) / Fold change /veh RGS16 (11746705_a_at) / RFU VCAN (11755009_s_at) / Fold change /veh VCAN (11755009_s_at) / RFU RHOB (11743442_s_at) / Fold change /veh RHOB (11743442_s_at) / RFU RGS16 (11720943_a_at) / Fold change /veh RGS16 (11720943_a_at) / RFU RGS16 (11720944_at) / Fold change /veh RGS16 (11720944_at) / RFU, VPS4B / Fold change vs veh, VPS4B / RFU, CREB1 / Fold change vs veh, CREB1 / RFU, DNAJC13 / Fold change vs veh, DNAJC13 / RFU, GNAQ / Fold change vs veh, GNAQ / RFU, CDK5R1 / Fold change vs veh, CDK5R1 / RFU, ZRANB3 / Fold change vs veh, ZRANB3 / RFU, CUL4A / Fold change vs veh, CUL4A / RFU, CCNY / Fold change vs veh, CCNY / RFU, UFL1 / Fold change vs veh, UFL1 / RFU, COG3 / Fold change vs veh, COG3 / RFU, DIAPH2 / Fold change vs veh, DIAPH2 / RFU, SKA2 / Fold change vs veh, SKA2 / RFU, AFF3 / Fold change vs veh, AFF3 / RFU, LMF1 / Fold change vs veh, LMF1 / RFU, IPO11 / Fold change vs veh, IPO11 / RFU, DFFB / Fold change vs veh, DFFB / RFU, FOXP1 / Fold change vs veh, FOXP1 / RFU, CARD8 / Fold change vs veh, CARD8 / RFU, STRN3 / Fold change vs veh, STRN3 / RFU, ADK / Fold change vs veh, ADK / RFU, RASSF2 / Fold change vs veh, RASSF2 / RFU, WIPF1 / Fold change vs veh, WIPF1 / RFU, LARP1B / Fold change vs veh, LARP1B / RFU, RASA1 / Fold change vs veh, RASA1 / RFU, RB1 / Fold change vs veh, RB1 / RFU, PPFIA1 / Fold change vs veh, PPFIA1 / RFU, MAT2A / Fold change vs veh, MAT2A / RFU, CCT5 / Fold change vs veh, CCT5 / RFU, WDR92 / Fold change vs veh, WDR92 / RFU, CUX1 / Fold change vs veh, CUX1 / RFU, TTC7A / Fold change vs veh, TTC7A / RFU, TMEM135 / Fold change vs veh, TMEM135 / RFU, DEPTOR / Fold change vs veh, DEPTOR / RFU, CPM / Fold change vs veh, CPM / RFU, DNAJB6 / Fold change vs veh, DNAJB6 / RFU, CACNA2D3 / Fold change vs veh, CACNA2D3 / RFU, DTX4 / Fold change vs veh, DTX4 / RFU, TFCP2 / Fold change vs veh, TFCP2 / RFU, GMCL1 /// GMCL1P1 / Fold change vs veh, GMCL1 /// GMCL1P1 / RFU, AEBP2 / Fold change vs veh, AEBP2 / RFU, SNHG1 /// SNORD22 /// SNORD25 /// SNORD26 /// SNORD27 /// SNORD28 /// SNORD29 /// SNORD31 / Fold change vs veh, SNHG1 /// SNORD22 /// SNORD25 /// SNORD26 /// SNORD27 /// SNORD28 /// SNORD29 /// SNORD31 / Fold change (Aza/veh), C12orf56 (ProbeSet 11735607_a_at) / Fold change (ACY-1035/veh), C12orf56 (ProbeSet 11735607_a_at) / Fold change (Aza/veh), FGFR1OP (ProbeSet 11751329_s_at) / Fold change (ACY-1035/veh), FGFR1OP (ProbeSet 11751329_s_at) / Fold change (Aza/veh), VPS36 (ProbeSet 11739960_a_at) / Fold change (ACY-1035/veh), VPS36 (ProbeSet 11739960_a_at) / RFU SYPL1 (11715823_x_at) / Fold change /veh SYPL1 (11715823_x_at) / RFU IGFBP7 (11715501_s_at) / Fold change /veh IGFBP7 (11715501_s_at) / RFU REEP3 (11722064_at) / Fold change /veh REEP3 (11722064_at) / RFU IGLL1 (11728026_x_at) / Fold change /veh IGLL1 (11728026_x_at): dose or concentration left out as unconfirmed
Conditions: MV-4-11 cells, 48 hours

In the case of `Nc1ccc(-c2cccs2)cc1NC(=O)c1ccc2c(c1)cc(C1CC1)n2CCN1CCOCC1` [ACY-1035], the “RFU IL23R (11737362_x_at)” value is reported as 7.94 RFU.

From publication PMC5218480 (PLoS ONE, 2017)
